Like-named read-outs stand apart in the source and are kept apart here.

Series [1] is described as follows: Alkylation of 4-(4-nitrobenzyl)pyridine, absorbance at 540 nm (modified Wheeler and Chumley). The conditions noted are these: for Relative Alkylating Activity: (O.D. test sample/O.D. compound 8) × 100, pH 7.4, 37°C, 540 nm; for absorbance at 540 nm (alkylating activity): comparison compounds. As to the method: Since compounds 1-13 were conceived as prodrugs of the alkylating species (II), representative compounds of this class, viz. 1-6, 8 and 10 were tested for alkylating ability using a modification of the method of Wheeler and Chumley. This method measured the absorbance at 540 nm of the alkylated product of 4-(4-nitrobenzyl)pyridine.
^a A solution of the test sample (12 micromoles) in 1 ml of acetone,
ml of distilled water and 1 ml of TrisHCl buffer (pH 7.4) was incubated
with 4(4-nitrobenzyl) pyridine (148 micromoles in 0.4 ml of acetone) for
hr at 37°C. Following additon of 2 ml of acetone and 1.5 ml of 0.2
M NaOH, the material was extracted with 5 ml of ethyl acetate. The
absorbance was determined at 540 nm 30 seconds after the addition of the
sodium hydroxide solution. The greater the absorbance value, the greater
the degree of alkylation
^b Relative Alkylating activity = (O.D. for test sample/O.D. for […]

Series [2] relates to L1210 leukemia. Nature of the series: Survival time of mice bearing the L1210 leukemia. It is filed as in vivo, mouse (CDF-1 mice). Conditions: for Av. Change wt. %: L1210 mice; for response vs control in vivo at 50 mg/kg / response vs control in vivo at 100 mg/kg / response vs control in vivo at 150 mg/kg: Mus musculus, read-out: % T/C; for Antineoplastic Activity (max. % T/C from Table III): Table II, L1210 leukemia; for activity against the L1210 leukemia (in words): mouse, in vivo; for Max. % T/C L1210 Leukemia: Table V; for maximum % T/C, L1210 leukemia: comparison compounds. From the text: The ascites cell forms of the L1210 leukemia, Sarcoma 180 and P388 leukemia were propagated in CDF-1 mice. […] Mice were weighed during the course of the experiments, and the percentage change in body weight from the onset to termination of therapy was used as an indication of host toxicity.
Each value represents the average of 5 animals per group.

Series [3] relates to B16 melanoma. Kind of series: Survival time of mice bearing the B16 melanoma. It is filed as in vivo, mouse (C57B1 mice). Conditions: for Max. % T/C: Table IV, B16, at optimum effective daily dose; for Av. Change in wt., %: at optimum effective daily dose, B16 mice; for Max. % T/C B16 Melanoma: Table V.
Description: This tumor was propagated in C57B1mice. Transplantation was carried out by removing tumors from donor mice bearing 14-day subcutaneous tumor growths. The tissue was fragmented to make a well-dispersed cellular suspension and diluted with Fischer's medium without serum so that one gram of tissue was suspended in 5 ml of solution. A portion (0.2 ml) of the resulting cell suspension was injected intraperitoneally into each recipient animal. All compounds were administered over a wide range of dosage levels by intraperitoneal injection, beginning 24 hours after tumor implantation, once daily for 6 consecutive days. The test compounds were injected as fine suspensions following homogenization in 2 to 3 drops of 20% aqueous Tween 80 and then made up to volume with isotonic saline. […] Mice were weighed during the course of the experiments, and the percent change in body weight from onset to termination of therapy was used as an indication of drug toxicity. Determination of the sensitivity of neoplasms to these agents was based on the prolongation of survival time afforded by the drug treatments.
^a Administered once daily for six consecutive days, beginnign 24
hours after tumor transplanation, with 5 animals being used per group.
^b Average change in body weight from onset to termination of therapy
^c % T/C = average survival time of treated/control animals ×
100. Each value represents the average of 5 animals per group.
The mark [4] stands for this setting: 50 mg/kg once daily for six days.
Where [5] appears, read: 100 mg/kg once daily for six days.
Where [6] appears, read: 150 mg/kg once daily for six days.
The mark [7] stands for this setting: 144 h, 50 mg/kg once daily for six days, L1210.
Where [8] appears, read: 144 h, 100 mg/kg once daily for six days, L1210.
Where [9] appears, read: 144 h, 150 mg/kg once daily for six days, L1210.

For `Cc1ccc(S(=O)(=O)N(C)NS(=O)(=O)c2ccccc2)cc1` [Compound 1, N'-benzenesulfonyl-N-methyl-N-(p-toluenesulfonyl)hydrazine], the “Relative Alkylating Activity” value in series [1] turned out to be 118. In addition, the “Average Survival Time of Treated Animals, days ± SE” value (shortened to “Average Survival Time … days ± SE”) in series [2] (setting [4]) came out at 15.0 ± 1.4 days; in series [2] (setting [5]), 10.6 ± 0.2 days; in series [2] (setting [6]), 10.8 ± 0.5 days. Also, the “Av. Change wt. %” value in series [2] (setting [4]) is reported as “+2.0%”; in series [2] (setting [5]), “+5.4%”; in series [2] (setting [6]), -2.7%. In series [2] (setting [7]), the response vs control in vivo at 50 mg/kg was found to be 163%. Besides, the response vs control in vivo at 100 mg/kg in series [2] (setting [8]) is 115%. In addition, the response vs control in vivo at 150 mg/kg in series [2] (setting [9]) was determined as 117%. Besides, the “Antineoplastic Activity (max. % T/C from Table III)” value in series [2] is recorded as 163 % T/C. Besides, the “Max. % T/C” value in series [3] is 168 % T/C. For the same compound, the “Av. Change in wt., %” value in series [3] is on record as “+8.5%”.
On to `COc1ccc(S(=O)(=O)NN(C)S(=O)(=O)c2ccc(C)cc2)cc1` [Compound 2, N'-(p-methoxybenzenesulfonyl)-N-methyl-N-(p-toluenesulfonyl)hydrazine], for which the “Relative Alkylating Activity” value in series [1] is recorded as 95. In series [2] (setting [4]), the “Average Survival Time … days ± SE” value amounted to 10.8 ± 0.6 days and the “Av. Change wt. %” value is on record as “+7.7%”. Also, in series [2] (setting [5]), the “Average Survival Time … days ± SE” value is 15.0 ± 2.3 days and the “Av. Change wt. %” value was “+7.8%”. Besides, in series [2] (setting [6]), the “Average Survival Time … days ± SE” value stood at 13.2 ± 2.2 days and the “Av. Change wt. %” value was “+2.9%”. In addition, the response vs control in vivo at 50 mg/kg in series [2] (setting [7]) was determined as 117%. Further, in series [2] (setting [8]), the response vs control in vivo at 100 mg/kg was 163%. Besides, the response vs control in vivo at 150 mg/kg in series [2] (setting [9]) was 143%. Also, the “Antineoplastic Activity (max. % T/C from Table III)” value in series [2] is 163 % T/C. In series [3], the “Max. % T/C” value is 200 % T/C and the “Av. Change in wt., %” value is “+9.1%”.
On to `Cc1ccc(S(=O)(=O)N(C)NS(=O)(=O)c2ccc(Cl)cc2)cc1` [Compound 3, N'-(p-chlorobenzenesulfonyl)-N-methyl-N-(p-toluenesulfonyl)hydrazine], for which, in series [1], the “rate of decomposition to a reactive species (in words)” value is given as “decomposed less rapidly than compound 10” and the “Relative Alkylating Activity” value was determined as 135. Besides, in series [2] (setting [4]), the “Average Survival Time … days ± SE” value is listed as 17.4 ± 1.4 days and the “Av. Change wt. %” value is given as “+3.7%”. Also, in series [2] (setting [5]), the “Average Survival Time … days ± SE” value worked out at 10.8 ± 0.6 days and the “Av. Change wt. %” value was “+10.0%”. Also, in series [2] (setting [6]), the “Average Survival Time … days ± SE” value was determined as 11.2 ± 1.3 days and the “Av. Change wt. %” value is “+6.0%”. In series [2] (setting [8]), the response vs control in vivo at 100 mg/kg was determined as 117%. For the same compound, in series [2] (setting [9]), the response vs control in vivo at 150 mg/kg turned out to be 122%. For the same compound, the response vs control in vivo at 50 mg/kg in series [2] (L1210, 144 h) came to 189%. In series [2], the “Antineoplastic Activity (max. % T/C from Table III)” value was determined as 189 % T/C and the “activity against the L1210 leukemia (in words)” value is given as “active against the L1210 leukemia”. In series [3], the “Max. % T/C” value was found to be 171 % T/C and the “Av. Change in wt., %” value is “+2.9%”.
With `COc1ccc(S(=O)(=O)N(C)NS(=O)(=O)c2ccc(C)cc2)cc1` [Compound 4], in series [1], the “alkylating activity / absorbance (in words)” value is listed as “lowest” and the “Relative Alkylating Activity” value is on record as 82. Moreover, in series [2] (setting [4]), the “Average Survival Time … days ± SE” value is 10.2 ± 0.5 days and the “Av. Change wt. %” value is on record as “+12.6%”. In series [2] (setting [5]), the “Average Survival Time … days ± SE” value is recorded as 10.2 ± 0.2 days and the “Av. Change wt. %” value is “+14.8%”. In series [2] (setting [6]), the “Average Survival Time … days ± SE” value was found to be 10.4 ± 0.2 days and the “Av. Change wt. %” value was “+9.8%”. Besides, the response vs control in vivo at 50 mg/kg in series [2] (setting [7]) stood at 111%. Moreover, the response vs control in vivo at 100 mg/kg in series [2] (setting [8]) was 111%. Moreover, the response vs control in vivo at 150 mg/kg in series [2] (setting [9]) worked out at 113%. Besides, in series [2], the “Antineoplastic Activity (max. % T/C from Table III)” value stood at 113 % T/C and the “activity against the L1210 leukemia (in words)” value was “virtually inactive”. Moreover, in series [3], the “Max. % T/C” value came to 151 % T/C and the “Av. Change in wt., %” value was -14.0%.
`COc1ccc(S(=O)(=O)N(C)NS(C)(=O)=O)cc1` [Compound 29]: in series [2], the “Max. % T/C L1210 Leukemia” value came out at 274 % T/C and the “activity against the L1210 leukemia (in words)” value is “highest increases in survival time”. Further, the “Max. % T/C B16 Melanoma” value in series [3] turned out to be 204 % T/C.
Take `CN(NS(=O)(=O)c1ccccc1)S(=O)(=O)c1ccc(Cl)cc1` [Compound 31, N'-benzenesulfonyl-N-(p-chlorobenzenesulfonyl)-N-methylhydrazine]: the “Max. % T/C L1210 Leukemia” value in series [2] is listed as 111 % T/C. In addition, in series [3], the “Max. % T/C B16 Melanoma” value worked out at 146 % T/C.
As for `COc1ccc(S(=O)(=O)NN(C)S(=O)(=O)c2ccc(Cl)cc2)cc1` [Compound 32, N-(p-chlorobenzenesulfonyl)-N'-(p-methoxybenzenesulfonyl)-N-methylhydrazine], in series [2], the “Max. % T/C L1210 Leukemia” value was determined as 130 % T/C. Besides, the “Max. % T/C B16 Melanoma” value in series [3] is 153 % T/C.
Consider `CN(NS(=O)(=O)c1ccc2ccccc2c1)S(=O)(=O)c1ccc(Cl)cc1` [Compound 33, N-(p-chlorobenzenesulfonyl)-N-methyl-N'-(2-naphthalenesulfonyl)hydrazine], for which the “Max. % T/C L1210 Leukemia” value in series [2] came out at 109 % T/C. Further, in series [3], the “Max. % T/C B16 Melanoma” value is recorded as 153 % T/C.
As for `CN(NS(C)(=O)=O)S(=O)(=O)c1ccc(Cl)cc1` [Compound 35, N-(p-chlorobenzenesulfonyl)-N'-methanesulfonyl-N-methylhydrazine], in series [2], the “Max. % T/C L1210 Leukemia” value was 167 % T/C. The “Max. % T/C B16 Melanoma” value in series [3] worked out at 194 % T/C.
For `COc1ccc(S(=O)(=O)NN(C)S(=O)(=O)c2ccc(Br)cc2)cc1` [Compound 39, N-(p-bromobenzenesulfonyl)-N'-(p-methoxybenzene-sulfonyl)-N-methylhydrazine], in series [2], the “Max. % T/C L1210 Leukemia” value was 165 % T/C. The “Max. % T/C B16 Melanoma” value in series [3] worked out at 167 % T/C.
With `CN(NS(=O)(=O)c1ccc(Br)cc1)S(=O)(=O)c1ccc(Br)cc1` [Compound 41, N,N'-bis(p-bromobenzenesulfonyl)-N-methylhydrazine], the “Max. % T/C L1210 Leukemia” value in series [2] was determined as 183 % T/C. Further, the “Max. % T/C B16 Melanoma” value in series [3] is 161 % T/C.
For `CN(NS(=O)(=O)c1ccccc1)S(=O)(=O)c1ccc2ccccc2c1` [Compound 45, N'-benzenesulfonyl-N-methyl-N-(2naphthalenesulfonyl)hydrazine], in that order: 106 % T/C and 163 % T/C.
Turning to `CN(NS(=O)(=O)c1ccccc1)S(=O)(=O)Cc1ccccc1` [Compound 49, N'-benzenesulfonyl-N-benzylsulfonyl-N-methylhydrazine], the “Max. % T/C L1210 Leukemia” value in series [2] is 185 % T/C. The “Max. % T/C B16 Melanoma” value in series [3] was 208 % T/C.
For `Cc1ccc(S(=O)(=O)NN(C)S(=O)(=O)Cc2ccccc2)cc1` [Compound 50] the same measures were 144 % T/C and 206 % T/C.
For `CN(NS(=O)(=O)c1ccc(Cl)cc1)S(=O)(=O)Cc1ccccc1` [Compound 52], in that order: 128 % T/C and 184 % T/C.
For `Cc1ccc(S(=O)(=O)NN(C)S(=O)(=O)c2ccc(I)cc2)cc1` [Compound 59] the same measures were 123 % T/C and 176 % T/C.
For the compound `O=S(=O)(NNS(=O)(=O)c1ccccc1)c1ccccc1` [N,N'-bis(benzenesulfonyl )hydrazine, reference compound], in series [1], the “alkylating activity / absorbance (in words)” value is reported as “negligible alkylating activity” and the “absorbance at 540 nm (alkylating activity)” value came out at 0. Further, in series [2], the “maximum % T/C, L1210 leukemia” value came out at 101 % T/C and the “activity against the L1210 leukemia (in words)” value is “inactive against the L1210 leukemia”. For the same compound, in series [2] (listed as N,N'-bis(benzenesulfonyl)hydrazine), the “activity against the L1210 leukemia (in words)” value was “inactivity”.
Take `CN(NC(=O)c1ccccc1)C(=O)c1ccccc1` [N,N'-dibenzoyl-N-methylhydrazine, reference compound]: in series [1], the “alkylating activity / absorbance (in words)” value was “negligible alkylating activity” and the “absorbance at 540 nm (alkylating activity)” value is 10. In addition, in series [2], the “maximum % T/C, L1210 leukemia” value stood at 97 % T/C and the “activity against the L1210 leukemia (in words)” value is “inactive against the L1210 leukemia”.

These data come from patent publication US4892887A, “N,N'-bis(sulfonyl)hydrazines having antineoplastic activity” (Yale University, priority 1988, dated 1990).
